Converted amounts (≈) assume the structure as drawn. The source made the active and inactive calls. The calls are words filed in the database; no cut-off is given here. Bridge positions count the residues as written; N and C are the ends. Peptide text beside a SMILES is read from it. I, II: the chains in the order shown. * marks the point of attachment. Decanoyl = CCCCCCCCCC(=O)*; Octanoyl = CCCCCCCC(=O)*; Butyryl = CCCC(=O)*
Assays:
[1] = Toxicity in New Zealand white rabbit erythrocytes assessed as hemolytic activity after 60 mins; format: cell-based, Oryctolagus cuniculus; settings: erythrocyte, 1 h
[2] = tested on: Klebsiella pneumoniae; assay: Antibacterial activity against Klebsiella pneumoniae DM4299 after 24 hrs by broth microdilution method; format: functional; settings: DM4299, 24 h
[3] = tested on: Pseudomonas aeruginosa; assay: Antibacterial activity against Pseudomonas aeruginosa DM23155 after 24 hrs by broth microdilution method; format: functional; settings: DM23155, 24 h
[4] = tested on: Escherichia coli; assay: Antibacterial activity against Escherichia coli ATCC 25922 after 24 hrs by broth microdilution method; format: functional; settings: ATCC 25922, 24 h
[5] = tested on: Lipopolysaccharide (LPS); assay: Displacement of dansylcadaverine from Escherichia coli 0111:B4 LPS at 15 to 30 uM after 5 mins by high-throughput fluorescence displacement assay
[6] = tested on: Lipopolysaccharide (LPS); assay: Induction of Escherichia coli 0111:B4 LPS neutralization using p-nitroaniline assessed as concentration required to neutralize 50% after 1 hr by limulus amebocyte lysate assay
[7] = tested on: Lipopolysaccharide (LPS); assay: Induction of Pseudomonas aeruginosa serotype 10 LPS neutralization using p-nitroaniline assessed as concentration required to neutralize 50% after 1 hr by limulus amebocyte lysate assay
[8] = tested on: Pseudomonas aeruginosa; assay: Induction of 1-N-phenylnaphthylamine uptake in Pseudomonas aeruginosa DM23155 at 400 uM after 1 hr by fluorescence assay relative to polymyxin B; format: functional
[9] = tested on: Pseudomonas aeruginosa; assay: Antibacterial activity against Pseudomonas aeruginosa DR18531 after 24 hrs by broth microdilution method; format: functional; settings: DR18531, 24 h
[10] = tested on: Pseudomonas aeruginosa; assay: Antibacterial activity against Pseudomonas aeruginosa DM4150R after 24 hrs by broth microdilution method; format: functional
[11] = tested on: Pseudomonas aeruginosa; assay: Antibacterial activity against Pseudomonas aeruginosa DM23257 after 24 hrs by broth microdilution method; format: functional; settings: DM23257, 24 h
[12] = tested on: Pseudomonas aeruginosa; assay: Antibacterial activity against Pseudomonas aeruginosa DM23376 after 24 hrs by broth microdilution method; format: functional; settings: DM23376, 24 h
[13] = tested on: Pseudomonas aeruginosa; assay: Antibacterial activity against Pseudomonas aeruginosa DU14476 after 24 hrs by broth microdilution method; format: functional; settings: DU14476, 24 h
[14] = tested on: Pseudomonas aeruginosa; assay: Antibacterial activity against Pseudomonas aeruginosa DR5790 after 24 hrs by broth microdilution method; format: functional; settings: DR5790, 24 h
[15] = tested on: Pseudomonas aeruginosa; assay: Antibacterial activity against Pseudomonas aeruginosa DR4877 after 24 hrs by broth microdilution method; format: functional; settings: DR4877, 24 h
[16] = tested on: Pseudomonas aeruginosa; assay: Antibacterial activity against Pseudomonas aeruginosa ATCC 9027 after 24 hrs by broth microdilution method; format: functional; settings: ATCC 9027, 24 h
[17] = tested on: Pseudomonas aeruginosa; assay: Antibacterial activity against Pseudomonas aeruginosa ATCC 27853 after 24 hrs by broth microdilution method; format: functional; settings: ATCC 27853, 24 h
[18] = tested on: Pseudomonas aeruginosa; assay: Induction of cytoplasmic membrane depolarization in Pseudomonas aeruginosa DM23155 at 4 times MIC after 1 hr by fluorescence assay; format: functional, organism-based
[19] = tested on: Pseudomonas aeruginosa; assay: Induction of cytoplasmic membrane disruption in Pseudomonas aeruginosa DM23155 assessed as membrane integrity at 1 to 2 times MIC after 1 hr by fluorescence assay; format: functional
[20] = tested on: Pseudomonas aeruginosa; assay: Induction of cytoplasmic membrane disruption in Pseudomonas aeruginosa DM23155 assessed as membrane integrity at 2 times MIC after 1 hr by fluorescence assay; format: functional
[21] = Induction of calcein leakage from DOPE/DOPG artificial membrane at 1:32 ratio of compound to lipid by fluorescence assay; format: physicochemical
[22] = Induction of calcein leakage from DOPC artificial membrane at 1:32 ratio of compound to lipid by fluorescence assay; format: physicochemical
[23] = tested on: Pseudomonas aeruginosa; assay: Antibacterial activity against Pseudomonas aeruginosa DM23155 assessed as log reduction of viable count at 2 times MIC after 5 hrs by time-kill assay relative to control; format: functional
[24] = tested on: Pseudomonas aeruginosa; assay: Antibacterial activity against Pseudomonas aeruginosa DM23155 assessed as log reduction of viable count at 2 times MIC after 24 hrs by time-kill assay; format: functional, organism-based
[25] = tested on: Pseudomonas aeruginosa; assay: Antibacterial activity against Pseudomonas aeruginosa DM23155 assessed as log reduction of viable count at 1 time MIC after 24 hrs by time-kill assay; format: functional, organism-based
[26] = tested on: Pseudomonas aeruginosa; assay: Antibacterial activity against Pseudomonas aeruginosa DM23155 assessed as log reduction of viable count at 1 time MIC after 5 hrs by time-kill assay relative to control; format: functional
[27] = tested on: Pseudomonas aeruginosa; assay: Antibacterial activity against Pseudomonas aeruginosa DM23155 assessed as log reduction of viable count at 2 times MIC after 30 mins by time-kill assay relative to control; format: functional
[28] = tested on: Pseudomonas aeruginosa; assay: Antibacterial activity against Pseudomonas aeruginosa DM23155 assessed as log reduction of viable count MIC up to 24 hrs by time-kill assay; format: functional, organism-based
[29] = tested on: Pseudomonas aeruginosa; assay: Antibacterial activity against Pseudomonas aeruginosa DM23155 assessed as log reduction of viable count at 1 to 2 times MIC by time-kill assay relative to control; format: functional, organism-based
[30] = tested on: Pseudomonas aeruginosa; assay: Antibacterial activity against Pseudomonas aeruginosa DM23155 assessed as log reduction of viable count at 1 to 2 times MIC after 24 hrs by time-kill assay; format: functional, organism-based
[31] = tested on: Pseudomonas aeruginosa; assay: Antibacterial activity against Pseudomonas aeruginosa DM23155 after 24 hrs by checkerboard assay in presence of nalidixic acid; format: functional
[32] = tested on: Pseudomonas aeruginosa; assay: Antibacterial activity against Pseudomonas aeruginosa DM23155 after 24 hrs by checkerboard assay in presence of gentamicin; format: functional
[33] = tested on: Pseudomonas aeruginosa; assay: Antibacterial activity against Pseudomonas aeruginosa DM23155 after 24 hrs by checkerboard assay in presence of erythromycin; format: functional
[34] = tested on: Pseudomonas aeruginosa; assay: Antibacterial activity against Pseudomonas aeruginosa DM23155 after 24 hrs by checkerboard assay in presence of streptomycin; format: functional
[35] = tested on: Pseudomonas aeruginosa; assay: Antibacterial activity against Pseudomonas aeruginosa DM23155 after 24 hrs by checkerboard assay in presence of kanamycin; format: functional
[36] = tested on: Escherichia coli; assay: Antibacterial activity against Escherichia coli ATCC 25922 after 24 hrs by checkerboard assay in presence of nalidixic acid; format: functional
[37] = tested on: Escherichia coli; assay: Antibacterial activity against Escherichia coli ATCC 25922 after 24 hrs by checkerboard assay in presence of gentamicin; format: functional
[38] = tested on: Escherichia coli; assay: Antibacterial activity against Escherichia coli ATCC 25922 after 24 hrs by checkerboard assay in presence of erythromycin; format: functional
[39] = tested on: Escherichia coli; assay: Antibacterial activity against Escherichia coli ATCC 25922 after 24 hrs by checkerboard assay in presence of streptomycin; format: functional
[40] = tested on: Escherichia coli; assay: Antibacterial activity against Escherichia coli ATCC 25922 after 24 hrs by checkerboard assay in presence of kanamycin; format: functional

MIC [2] [µM]	MIC [3] [µM]	MIC [4] [µM]	Activity [5] [%]	EC50 [6] [µM]	MIC [9] [µM]	MIC [10] [µM]	MIC [11] [µM]	MIC [12] [µM]	MIC [13] [µM]	MIC [14] [µM]	MIC [15] [µM]	MIC [16] [µM]	MIC [17] [µM]	Activity [22]	Structure (SMILES)	HC10 [1] [µg/mL]	Activity [8] [%]	Activity [18]	further results
6 (≈ 13.6 µg/mL)	6 (≈ 13.6 µg/mL)	3 (≈ 6.79 µg/mL)	72.4	769	–	–	–	–	–	–	–	–	–	–	CCCC(=O)N[C@@H](CCCNC(=N)N)C(=O)NCC(=O)N[C@@H](CCCNC(=N)N)C(=O)N[C@@H](CCCCN)C(=O)NCC(=O)NCC(=O)N[C@@H](CCCNC(=N)N)C(=O)N[C@@H](CCCNC(=N)N)C(=O)NCCCC[C@H](NC(=O)[C@H](CCCNC(=N)N)NC(=O)[C@H](CCCNC(=N)N)NC(=O)CNC(=O)CNC(=O)[C@H](CCCCN)NC(=O)[C@H](CCCNC(=N)N)NC(=O)CNC(=O)[C@H](CCCNC(=N)N)NC(=O)CCC)C(=O)N[C@@H](CCCCN)C(=O)O (I: Butyryl-RGRKGGRRKK-OH / II: Butyryl-RGRKGGRR; amide I:9-II:C)	> 10000	2.5	–	EC50 [7]: 345 µM
3 (≈ 7.8 µg/mL)	3 (≈ 7.8 µg/mL)	6 (≈ 15.6 µg/mL)	131	38.1	1.5 (≈ 3.9 µg/mL)	1.5 (≈ 3.9 µg/mL)	3 (≈ 7.8 µg/mL)	3 (≈ 7.8 µg/mL)	3 (≈ 7.8 µg/mL)	3 (≈ 7.8 µg/mL)	6 (≈ 15.6 µg/mL)	3 (≈ 7.8 µg/mL)	3 (≈ 7.8 µg/mL)	Active	CCCCCCCCCC(=O)N[C@@H](CCCNC(=N)N)C(=O)NCC(=O)N[C@@H](CCCNC(=N)N)C(=O)N[C@@H](CCCCN)C(=O)N[C@H](C(=O)N[C@H](C(=O)N[C@@H](CCCNC(=N)N)C(=O)N[C@@H](CCCNC(=N)N)C(=O)NCCCC[C@H](NC(=O)[C@H](CCCNC(=N)N)NC(=O)[C@H](CCCNC(=N)N)NC(=O)[C@@H](NC(=O)[C@@H](NC(=O)[C@H](CCCCN)NC(=O)[C@H](CCCNC(=N)N)NC(=O)CNC(=O)[C@H](CCCNC(=N)N)NC(=O)CCCCCCCCC)C(C)C)C(C)C)C(=O)N[C@@H](CCCCN)C(=O)O)C(C)C)C(C)C (I: Decanoyl-RGRKVVRRKK-OH / II: Decanoyl-RGRKVVRR; amide I:9-II:C)	> 10000	–	Active	Activity [19]: >80%; Activity [20]: 51.1%; Activity [21]: Active
3 (≈ 6.37 µg/mL)	6 (≈ 12.7 µg/mL)	6 (≈ 12.7 µg/mL)	84.8	> 1000	3 (≈ 6.37 µg/mL)	6 (≈ 12.7 µg/mL)	10 (≈ 21.2 µg/mL)	6 (≈ 12.7 µg/mL)	6 (≈ 12.7 µg/mL)	6 (≈ 12.7 µg/mL)	6 (≈ 12.7 µg/mL)	6 (≈ 12.7 µg/mL)	6 (≈ 12.7 µg/mL)	–	N=C(N)NCCC[C@H](NC(=O)CNC(=O)CNC(=O)[C@H](CCCCN)NC(=O)[C@H](CCCNC(=N)N)NC(=O)CNC(=O)[C@@H](N)CCCNC(=N)N)C(=O)N[C@@H](CCCNC(=N)N)C(=O)NCCCC[C@H](NC(=O)[C@H](CCCNC(=N)N)NC(=O)[C@H](CCCNC(=N)N)NC(=O)CNC(=O)CNC(=O)[C@H](CCCCN)NC(=O)[C@H](CCCNC(=N)N)NC(=O)CNC(=O)[C@@H](N)CCCNC(=N)N)C(=O)N[C@@H](CCCCN)C(=O)O (I: H-RGRKGGRRKK-OH / II: H-RGRKGGRR; amide I:9-II:C)	> 10000	1.9	–	FC [23]: 10; Activity [24]: Active; Activity [25]: inactive; FC [26]: 2.7
3 (≈ 7.12 µg/mL)	3 (≈ 7.12 µg/mL)	3 (≈ 7.12 µg/mL)	112	117	3 (≈ 7.12 µg/mL)	3 (≈ 7.12 µg/mL)	6 (≈ 14.2 µg/mL)	3 (≈ 7.12 µg/mL)	3 (≈ 7.12 µg/mL)	3 (≈ 7.12 µg/mL)	3 (≈ 7.12 µg/mL)	3 (≈ 7.12 µg/mL)	3 (≈ 7.12 µg/mL)	Active	CCCCCCCC(=O)N[C@@H](CCCNC(=N)N)C(=O)NCC(=O)N[C@@H](CCCNC(=N)N)C(=O)N[C@@H](CCCCN)C(=O)NCC(=O)NCC(=O)N[C@@H](CCCNC(=N)N)C(=O)N[C@@H](CCCNC(=N)N)C(=O)NCCCC[C@H](NC(=O)[C@H](CCCNC(=N)N)NC(=O)[C@H](CCCNC(=N)N)NC(=O)CNC(=O)CNC(=O)[C@H](CCCCN)NC(=O)[C@H](CCCNC(=N)N)NC(=O)CNC(=O)[C@H](CCCNC(=N)N)NC(=O)CCCCCCC)C(=O)N[C@@H](CCCCN)C(=O)O (I: Octanoyl-RGRKGGRRKK-OH / II: Octanoyl-RGRKGGRR; amide I:9-II:C)	> 10000	20	Active	FC [27]: 3; Activity [28]: Dose-dependent effect; Activity [29]: Active; Activity [30]: Active; fractional inhibitory concentration index (FICI) [31]: 0.56; fractional inhibitory concentration index (FICI) [32]: 0.38; fractional inhibitory concentration index (FICI) [33]: 0.38; fractional inhibitory concentration index (FICI) [34]: 0.56; fractional inhibitory concentration index (FICI) [35]: 0.56; fractional inhibitory concentration index (FICI) [36]: 0.56; fractional inhibitory concentration index (FICI) [37]: 0.38; fractional inhibitory concentration index (FICI) [38]: 1; fractional inhibitory concentration index (FICI) [39]: 0.5; fractional inhibitory concentration index (FICI) [40]: 0.56

From ChEMBL document CHEMBL3603789, “N-Lipidated Peptide Dimers: Effective Antibacterial Agents against Gram-Negative Pathogens through Lipopolysaccharide Permeabilization” (J Med Chem, 2015)
